Among the data in patent US12570615B2, “Quinazolinone derivatives” (Hoffmann-La Roche Inc., priority 2021, dated 2026) are IC50, Kd and EC50 values, retold here.

Broadly, the IC50 is the concentration that inhibits the measured activity by half. Lower therefore signals inhibition by little substance. The Kd is the free concentration of one partner at which half of the binding sites on the other are occupied at equilibrium, for simple one-to-one binding. The low end stands for tighter binding, the high end for weaker binding. The term EC50 denotes the concentration needed to bring the measured effect to its halfway point. High values mean weaker potency, low ones greater potency.

In experiment [1] the test system is P-ERK (ERK phospho-T202/Y204) in A375 cells expressing V600E mutated BRAF. The experiment can be described thus: HTRF assay for P-ERK determination in A375 cells (BRAF inhibition). The format is cell-based. To be noted: Homo sapiens, A-375, P-ERK level, drug incubation 1 hour, DMSO = 100%, 10 μM Dabrafenib = 0%. The source says:
(§1) A375 is a cellular cancer model expressing V600E mutated BRAF and HCT116 a cellular cancer model expressing WT BRAF. First generation BRAF inhibitors such as e.g. dabrafenib induce a paradox effect on tumour cells in that they inhibit the growth of V600E mutated BRAF cells (such as e.g. A375), while they activate growth in WT BRAF cells (such as e.g. HCT 116). ERK 1,2 phosphorylation (terminal member of the phosphorylation cascade of the MAPK pathway) is hereafter reported as main readout for the activation status of the MAPK pathway. DMEM no-phenol red medium supplemented with L-glutamine was purchased from (Thermo Fisher Scientific). Fetal bovine serum (FBS) was purchased from VWR. Advanced ERK phospho-T202/Y204 kit—10,000 tests was purchased from Cisbio cat #64AERPEH. A375 (catalog #CRL-1619) and HCT116 (catalog #CCL-247) cells were originally obtained from American type Culture Collection (ATCC) and banked by the Roche repository. 384-Well microplates utilized were purchased from Greiner Bio-One, 384-well, (With Lid, HiBase, Low volume cat 784-080).
(§2) Prior to the assay, A375 and HCT116 cell lines are maintained in DMEM no-phenol red medium supplemented with 10% fetal bovine serum (FBS). Following compound treatment, P-ERK levels are determined by measuring FRET fluorescence signal induced by selective binding of 2 antibodies provided in the mentioned kit (Cisbio cat #64AERPEH) on ERK protein when phosphorylated at Thr202/Tyr204. Briefly, 8000 cells/well in 12 μl media/well are plated in the 384-well plate and left overnight in the incubator (at 37° C. with 5% CO2-humidified atmosphere), the following day the plate is treated in duplicate with test compounds, dabrafenib and PLX8394 (the latter two as controls) at the following final drug concentrations: 10 μM-3 μM 1 μM-0.3 μM-0.1 μM-0.03 μM-0, 01 μM-0.003 μM-0.001 μM, all wells are subjected to DMSO normalization and drug incubation occurs for 1 hour. Then, […] of a 4× lysis buffer supplied with the kit are added to the wells, the plate is then centrifuged for 30 second (3000 rpm) and incubated on a plate shaker for 1 h at rt.
(§3) At the end of the incubation 4 μL/well of advanced P-ERK antibody solution (prepared according to manufacturer's instruction) followed by 4 μL/well of criptate P-ERK antibody solution (prepared according to manufacturer's instruction) (Cisbio cat #64AERPEH) are added to test wells.
(§4) In order to allow proper data normalization control wells non drug treated reported in the following table are always included in each plate (according to manufacturer's instruction):
(§5) The plate is then centrifuged at 3000 rpm for 30 second, sealed to prevent evaporation and incubated overnight in the dark at room temperature.
(§6) The plate is then analyzed and fluorescence emission value collected through a Pherastast FSX (BMG Labtech) apparatus at […].
(§7) The obtained fluorescence values are processed according to the formula Ratio=[…]*10000 then the average of the ratio on the blank is subtracted to all values.
Data are normalized in the case of A375 cells (BRAF inhibition) considering the average of the ratio (blank subtracted) derived by DMSO only treated cells as 100% and by considering the average of the ratio (blank subtracted) derived by 10 μM Dabrafenib treated cells as 0%. Mean of the normalized points are fitted with sigmoidal curve and IC50 determined.
On the technique in general: In TR-FRET formats the signal depends on donor and acceptor labels being close together.

The target in a further experiment is BRAF (V600E) (Homo sapiens, UniProt P15056, V600E). Briefly: KD BRAF (V600E) (Table 1). The format is binding.
Experiment [2] deals with P-ERK (ERK phospho-T202/Y204) in HCT116 cells expressing WT BRAF. Briefly: HTRF assay for P-ERK determination in HCT116 cells (BRAF activation). The format is cell-based. As to conditions: Homo sapiens, HCT-116, drug incubation 1 hour, concentration giving 50% of the maximum activation achieved by Dabrafenib.
From the text: as §1, §2, §3, §4, §5, §6, §7
Data are normalized in the case of HCT116 cells (BRAF activation) considering the average of the ratio (blank subtracted) derived by DMSO only treated cells as 0% and by considering the average of the ratio (blank subtracted) derived by Dabrafenib treated cells at the concentration which provides the highest signal as 100%. Individual points are fitted with either sigmoidal or bell shape curves. The EC50 is the concentration at which activation equal to 50% of the maximum activation achieved by Dabrafenib is obtained.

Another experiment has as its target BRAF (wt) (Homo sapiens, UniProt P15056). The experiment can be described thus: KD BRAF (wt) (Table 1). The format is binding.

Counter-ions that a name gives are not always drawn.

Chain of BRAF (wt) (P15056 whole entry): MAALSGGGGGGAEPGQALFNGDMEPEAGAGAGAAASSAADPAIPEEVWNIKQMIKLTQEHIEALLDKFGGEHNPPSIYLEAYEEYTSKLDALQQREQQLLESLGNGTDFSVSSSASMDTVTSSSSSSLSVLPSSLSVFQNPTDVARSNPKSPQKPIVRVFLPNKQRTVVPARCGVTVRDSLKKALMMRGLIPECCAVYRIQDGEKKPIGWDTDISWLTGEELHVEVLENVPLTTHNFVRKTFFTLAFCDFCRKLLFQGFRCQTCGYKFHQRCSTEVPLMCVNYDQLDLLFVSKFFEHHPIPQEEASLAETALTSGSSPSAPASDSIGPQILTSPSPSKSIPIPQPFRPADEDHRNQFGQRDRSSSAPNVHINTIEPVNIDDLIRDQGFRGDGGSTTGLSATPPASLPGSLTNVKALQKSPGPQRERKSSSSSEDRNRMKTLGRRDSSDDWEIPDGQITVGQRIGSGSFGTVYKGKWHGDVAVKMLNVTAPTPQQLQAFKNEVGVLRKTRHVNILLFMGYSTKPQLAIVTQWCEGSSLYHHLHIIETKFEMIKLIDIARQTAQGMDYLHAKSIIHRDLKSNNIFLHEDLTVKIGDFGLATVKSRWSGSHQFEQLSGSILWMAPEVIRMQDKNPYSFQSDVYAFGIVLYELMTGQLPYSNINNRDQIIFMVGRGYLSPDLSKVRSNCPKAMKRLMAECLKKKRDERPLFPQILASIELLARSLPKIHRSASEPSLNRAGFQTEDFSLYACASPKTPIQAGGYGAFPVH
Chain of BRAF (V600E) (P15056 whole entry V600E): as the sequence (P15056 whole entry) above, with V600E counted along it

The compound `CCN(C)S(=O)(=O)Nc1cccc(Nc2ccc3ncn(CC4CCN(C(=O)OC(C)(C)C)CC4)c(=O)c3c2)c1C#N` [Example 32, tert-butyl 4-[[6-[2-cyano-3-[[ethyl(methyl)sulfamoyl]amino]anilino]-4-oxo-quinazolin-3-yl]methyl]piperidine-1-carboxylate] came in with an IC50 in experiment [1] of 428 nM. The Kd on BRAF (V600E) was found to be 813 nM; at BRAF (wt) it was 210 nM. In experiment [2], this compound had an EC50 not below 10000 nM.

The compound `CC(C)(C)OC(=O)N1CCC(CCn2cnc3ccc(Oc4c(F)ccc(NS(=O)(=O)C5CCCCC5)c4C#N)cc3c2=O)CC1` [Example 14, tert-butyl 4-[2-[6-[2-cyano-3-(cyclohexylsulfonylamino)-6-fluoro-phenoxy]-4-oxo-quinazolin-3-yl]ethyl]piperidine-1-carboxylate] registered an IC50 in experiment [1] of 254 nM. For the same compound, the results for the Kd at BRAF (V600E) and at BRAF (wt) were 114 nM and 54.3 nM, respectively. This compound also returned an EC50 in experiment [2] of 4850 nM.

As for `CC(=O)N(C)CCCn1cnc2ccc(Oc3c(F)ccc(NS(=O)(=O)C4CCCC4)c3C#N)cc2c1=O` [Example 24, N-[3-[6-[2-cyano-3-(cyclopentylsulfonylamino)-6-fluoro-phenoxy]-4-oxo-quinazolin-3-yl]propyl]-N-methyl-acetamide], the 50% inhibitory concentration (IC50) in experiment [1] came to 50.4 nM. Besides, the Kd on BRAF (V600E) is 0.76 nM; on BRAF (wt), 0.42 nM. The compound also registered an EC50 in experiment [2] not below 10000 nM.

In experiment [1], `CC(C)(C)OC(=O)N1CCN(CCn2cnc3ccc(Oc4c(F)ccc(NS(=O)(=O)N5CC[C@@H](F)C5)c4C#N)cc3c2=O)CC1` [Example 10, tert-butyl 4-[2-[6-[2-cyano-6-fluoro-3-[[(3R)-3-fluoropyrrolidin-1-yl]sulfonylamino]phenoxy]-4-oxo-quinazolin-3-yl]ethyl]piperazine-1-carboxylate] gave an IC50 of 36.7 nM. The Kd on BRAF (V600E) came to 4.82 nM; at BRAF (wt) it was 3.51 nM. Further, in experiment [2], it took 1530 nM to reach a half-maximal effect (EC50).

The compound `CCN(C)S(=O)(=O)Nc1cccc(Nc2ccc3ncn(CCOCCOCCN)c(=O)c3c2)c1C#N` [Example 38, 3-[2-[2-(2-aminoethoxy)ethoxy]ethyl]-6-[2-cyano-3-[[ethyl(methyl)sulfamoyl]amino]anilino]-4-oxo-quinazoline hydrochloride] came in with an IC50 in experiment [1] of 5740 nM. In addition, the Kd came out at 443 nM on BRAF (V600E) and 174 nM at BRAF (wt). Besides, in experiment [2], the EC50 was not below 10000 nM.

`CC(C)(C)OC(=O)N1CCC(CCn2cnc3ccc(Oc4c(F)ccc(NS(=O)(=O)N5CC[C@@H](F)C5)c4C#N)cc3c2=O)CC1` [Example 2, tert-butyl 4-[2-[6-[2-cyano-6-fluoro-3-[[(3R)-3-fluoropyrrolidin-1-yl]sulfonylamino]phenoxy]-4-oxo-quinazolin-3-yl]ethyl]piperidine-1-carboxylate] came in with an IC50 in experiment [1] of 30.3 nM. Moreover, the Kd at BRAF (V600E) is 21.4 nM; at BRAF (wt), 18.9 nM. The compound further had an EC50 in experiment [2] of 2250 nM.

As for `CC(C)(C)OC(=O)NCCCn1cnc2ccc(Oc3c(F)ccc(NS(=O)(=O)N4CCC4)c3C#N)cc2c1=O` [Example 9, tert-butyl N-[3-[6-[3-(azetidin-1-ylsulfonylamino)-2-cyano-6-fluoro-phenoxy]-4-oxo-quinazolin-3-yl]propyl]carbamate], the IC50 in experiment [1] came out at 28.9 nM. Besides, the Kd amounted to 0.97 nM at BRAF (V600E) and 0.69 nM on BRAF (wt). In addition, the EC50 in experiment [2] is 624 nM.

`CC(C)(C)OC(=O)N1CCN(CCn2cnc3ccc(Oc4c(F)ccc(NS(=O)(=O)N5CCCC5)c4C#N)cc3c2=O)CC1` [Example 16, tert-butyl 4-[2-[6-[2-cyano-6-fluoro-3-(pyrrolidin-1-ylsulfonylamino)phenoxy]-4-oxo-quinazolin-3-yl]ethyl]piperazine-1-carboxylate]: half-maximal inhibition in experiment [1] (IC50) required 11 nM. Besides, the Kd at BRAF (V600E) worked out at 2.16 nM; on BRAF (wt) it was 1.61 nM. The compound also showed an EC50 in experiment [2] of 240 nM.

`CCN(C)S(=O)(=O)Nc1ccc(F)c(Oc2ccc3ncn(CCCC(=O)OC(C)(C)C)c(=O)c3c2)c1C#N` [Example 1, tert-butyl 4-[6-[2-cyano-3-[[ethyl(methyl)sulfamoyl]amino]-6-fluoro-phenoxy]-4-oxo-quinazolin-3-yl]butanoate]: the concentration for half-maximal inhibition (IC50) in experiment [1] is 19.8 nM. The Kd at BRAF (V600E) was found to be 26.7 nM; at BRAF (wt), 15.3 nM. In experiment [2], the EC50 turned out to be 2360 nM.

The compound `N#Cc1c(Nc2ccc3ncn(CCCC(=O)O)c(=O)c3c2)cccc1NS(=O)(=O)N1CC[C@@H](F)C1` [Example 39, 4-[6-[2-cyano-3-[[(3R)-3-fluoropyrrolidin-1-yl]sulfonylamino]anilino]-4-oxo-quinazolin-3-yl]butanoic acid] registered an IC50 in experiment [1] not below 10000 nM. Further, the Kd stood at 48.3 nM on BRAF (V600E) and 11.6 nM on BRAF (wt). In experiment [2], this compound had an EC50 not below 10000 nM.

Compound `CC(C)(C)OC(=O)CCCn1cnc2ccc(Nc3cccc(NS(=O)(=O)N4CC[C@@H](F)C4)c3C#N)cc2c1=O` [Example 35, tert-butyl 4-[6-[2-cyano-3-[[(3R)-3-fluoropyrrolidin-1-yl]sulfonylamino]anilino]-4-oxo-quinazolin-3-yl]butanoate] came in with an IC50 in experiment [1] of 12.9 nM. The Kd at BRAF (V600E) stood at 20.9 nM; on BRAF (wt), 7.92 nM. In experiment [2], this compound registered an EC50 of 7220 nM.

In experiment [1], `CCC(C)S(=O)(=O)Nc1ccc(F)c(Oc2ccc3ncn(CCN4CCN(C(=O)OC(C)(C)C)CC4)c(=O)c3c2)c1C#N` (stereo not drawn) [Example 29, tert-butyl 4-[2-[6-[2-cyano-6-fluoro-3-(sec-butylsulfonylamino)phenoxy]-4-oxo-quinazolin-3-yl]ethyl]piperazine-1-carboxylate] yielded an IC50 of 18.1 nM. For the same compound, the Kd on BRAF (V600E) was determined as 19.2 nM; on BRAF (wt), 7.43 nM. The EC50 in experiment [2] amounted to 3670 nM.

In experiment [1], `CC(C)(C)OC(=O)N1CCCC(CCn2cnc3ccc(Oc4c(F)ccc(NS(=O)(=O)C5CCCC5)c4C#N)cc3c2=O)C1` (stereo not drawn) [Example 22, tert-butyl 3-[2-[6-[2-cyano-3-(cyclopentylsulfonylamino)-6-fluoro-phenoxy]-4-oxo-quinazolin-3-yl]ethyl]piperidine-1-carboxylate] returned an IC50 of 155 nM. The figures for the Kd on BRAF (V600E) and on BRAF (wt) were 28.9 nM and 27.9 nM, respectively. Further, the EC50 in experiment [2] is not below 10000 nM.

`CC(C)(C)OC(=O)NCCCn1cnc2ccc(Oc3c(F)ccc(NS(=O)(=O)N4CCCC4)c3C#N)cc2c1=O` [Example 5, tert-butyl N-[3-[6-[2-cyano-6-fluoro-3-(pyrrolidin-1-ylsulfonylamino)phenoxy]-4-oxo-quinazolin-3-yl]propyl]carbamate] displayed an IC50 in experiment [1] of 18.1 nM. In addition, the Kd at BRAF (V600E) was determined as 2.82 nM; at BRAF (wt), 1.35 nM. In experiment [2], this compound registered an EC50 of 1190 nM.

`CC(C)(C)OC(=O)N1CCC(CCn2cnc3ccc(Oc4c(F)ccc(NS(=O)(=O)C5CCC5)c4C#N)cc3c2=O)CC1` [Example 21, tert-butyl 4-[2-[6-[2-cyano-3-(cyclobutylsulfonylamino)-6-fluoro-phenoxy]-4-oxo-quinazolin-3-yl]ethyl]piperidine-1-carboxylate] came in with an IC50 in experiment [1] of 86.8 nM. The results for the Kd at BRAF (V600E) and at BRAF (wt) were 67.2 nM and 11.7 nM, respectively. Besides, the EC50 in experiment [2] was not below 10000 nM.
